Patent US10103402B2, “Liquid phenothiazine catholytes for non-aqueous redox flow batteries” (University of Kentucky Research Foundation, priority 2015, dated 2018)

How the values were obtained:
[1] = Radical cation stability by UV-vis absorption spectroscopy; assay type: physicochemical; details: 0.167 mM radical cation in DCM, oxidation with TBPA-SbCl6, monitored 5 h
Excerpt: The stability of the radical cation—typically the more reactive form of the electro-active material—can be monitored using UV-vis absorption spectroscopy as these species absorb light in the visible region. This method has proven to be useful for the evaluation of redox shuttle candidates for overcharge protection in LIBs, another application in which the radical cation is involved in electron transfer. The stability of the EPT, MEPT, and MEEPT radical cations were compared in dilute dichloromethane solutions after generation through chemical oxidation with tris(4-bromophenyl)aminium hexachloroantimonate (TBPA-SbCl6).
UV-vis spectra were collected using optical glass cuvettes (Starna) with 1 cm path length with an Agilent 8453 diode array spectrometer. Radical cations were generated in anhydrous DCM by the addition of a 1 mL DCM solution of 0.50 mM TBPA-SbCl6 to a 2 mL DCM solution containing 2.5 mM analyte to produce a final solution containing 0.17 mM radical cation with 1.7 mM analyte, which generates 0.17 mM analyte radical cation with a 9-fold excess of neutral analyte. The cuvettes were capped, and spectra were collected for 5 h.

[2] = Cyclic voltammetry at variable scan rates, diffusion coefficients; assay type: physicochemical; details: for Diffusion Coefficient, neutral, TBA-PF6 in DCM / Diffusion Coefficient, oxidized, TBA-PF6 in DCM: 10 mM analyte in 100 mM TBA-PF6/DCM, 10 to 200 mV/s; for Diffusion Coefficient, neutral, LiBF4 in PC / Diffusion Coefficient, oxidized, LiBF4 in PC: 10 mM analyte in 0.5M LiBF4/PC; for Diffusion Coefficient, neutral, LiBF4 in PC / Diffusion Coefficient, neutral, LiPF6 in EC/EMC / Diffusion Coefficient, oxidized, LiBF4 in PC / Diffusion Coefficient, oxidized, LiPF6 in EC/EMC: 5 to 500 mV/s; for Diffusion Coefficient, neutral, LiPF6 in EC/EMC / Diffusion Coefficient, oxidized, LiPF6 in EC/EMC: 80 mM analyte in 1.2M LiPF6 in EC/EMC (3:7)
Description: MEPT and MEEPT were subjected to CV experiments at variable scan rates in the carbonate-based electrolytes and DCM to determine their diffusion coefficients (FIG. 2, 8). At 80 mM, MEPT and MEEPT diffuse more slowly than EPT. This observation can be explained by the interaction of MEPT and MEEPT with a lithium ion from the electrolyte, which increases the size/molecular weight of the shuttle. Because the additional oxygen in MEEPT enhances the ability for Li^+ chelation, this effect is posited to be responsible for the further reduction in its diffusion rate.
(§1) Cyclic voltammetry (CV) experiments were performed using a CH Instruments 600D potentiostat using a three-electrode system in either 100 mM TBAPF6 in anhydrous DCM or in 1.2 M LiPF6 in ethylene carbonate (EC)/ethyl methyl carbonate (EMC) (3:7 wt. ratio) containing […] redox shuttle. Cyclic voltammograms were also recorded in 0.5 M LiBF4 in propylene carbonate (PC) containing 10 mM analyte. Glassy carbon was used as the working electrode, platinum wire as the counter electrode and either freshly anodized Ag/AgCl (in DCM) or lithium metal (in battery electrolyte) as reference electrodes. Oxidation potentials are reported relative to ferrocenium/ferrocene) (Cp2Fe^+/0) in DCM or to Li^+/0 in battery electrolyte. Voltammograms were recorded at a scan rate of 100 mV/s. To determine diffusion coefficients, voltammograms were recorded at variable rates between 5 and 500 mV/s at analyte concentration of 80 mM in 1.2 M LiPF6 in EC/EMC and 10 mM in 0.5 M LiBF4 in PC.

[3] = carbonate-based electrolytes; cited from earlier work
[4] = cited from earlier work
[5] = Solubility / miscibility in battery electrolyte and organic solvents; assay type: physicochemical; details: for Concentration corresponding to 50 wt. % miscibility: 1.2 M LiPF6 in EC/EMC (3:7 wt. ratio)
Excerpt: The compounds of the present invention can be prepared by deprotonation of phenothiazine and a subsequent SN2 reaction with a corresponding alkyl halide. This process has produced MEPT and MEEPT in good yields. The compounds were isolated as colorless oils that were miscible with a variety of organic solvents. Both derivatives were miscible up to 50 wt. % in the common battery electrolyte, 1.2 M LiPF6 in ethylene carbonate/ethyl methyl carbonate (EC/EMC, 3:7 wt. ratio) (Table 1), which corresponds to a concentration of ca. 2 M. In contrast, the solubility of EPT is limited to 0.1 M in the same electrolyte.
Next, to evaluate MEPT and MEEPT as cathode candidates for RFBs, the performance of the redox-active species over multiple charge and discharge cycles was analyzed, albeit in a static environment, using galvanostatic cycling in MEPT/Li and MEEPT/Li coin cells. Here we employed the electrolyte 0.5 M LiBF4 in PC in which both MEPT and MEEPT are miscible at as high as 50 wt. % (Table 1). The positive electrode was composed of graphite felt soaked in catholyte consisting of 10 mM active species in 0.5 M LiBF4 in PC, and Li metal was employed as the negative electrode. The electrodes were separated by a lithiated Nafion membrane. The coin cells were cycled between 3.2 and 3.8 V at a rate of C/5 up to 100% SOC so that the first oxidation would be accessed. The theoretical capacities of EPT, MEPT, and MEEPT are 118 mAh/g, 104 mAh/g, and 89 mAh/g, respectively. The charge and discharge plateaus occur in accordance with the potentials determined by CV; they represent the formation and reversible reduction of the respective radical cations. […] The gap between the charge and discharge capacities may result from crossover of the charged species. […] EPT, MEPT, and MEEPT retained ca. 76%, 68% and 67%, respectively, of the original charge capacity after 30 cycles, over which time the coulombic efficiencies for all three catholytes stabilized at ca. 90%.

[6] = Cyclic voltammetry, half-wave oxidation potentials; assay type: physicochemical; details: for E1/2^+/0 vs. Cp2Fe^+/0 in TBA-PF6 in DCM: 80 mM analyte in 100 mM TBA-PF6/DCM, 100 mV/s scan rate; for E1/2^+/0 vs. Li^+/0, LiPF6 in EC/EMC: 80 mM analyte in 1.2M LiPF6 in EC/EMC (3:7 wt. ratio), 100 mV/s
[7] = Cyclic voltammetry, half-wave oxidation potentials; assay type: physicochemical; details: for E1/2^+/0 vs. Li^+/0, LiBF4 in PC: 10 mM analyte in 0.5M LiBF4/PC, 100 mV/s; for Oxidation potential higher than EPT, LiPF6/EC/EMC: difference of E1/2^+/0 to EPT in LiPF6/EC/EMC; for Oxidation potential higher than EPT, TBA-PF6/DCM: difference of E1/2^+/0 to EPT in TBA-PF6/DCM
Description: The compounds of the present invention provide for components of a redox flow battery system, particularly as part of a catholyte composition. The studies described herein detail their effectiveness for such. The position and reversibility of redox events was determined by cyclic voltammetry (CV), performed in dichloromethane (DCM) containing 0.1 M tetra(n-butyl)ammonium hexafluorophosphate (TBA-PF6) (FIG. 7), in EC/EMC (3:7) containing 1.2 M LiPF6 (FIG. 2), or in propylene carbonate (PC) containing 0.5 M LiBF4 (FIG. 2). Both compounds show reversible first oxidations in all electrolytes. In TBA-PF6/DCM, MEPT (E1/2^+/0=0.30 V vs. Cp2Fe^+/0) and MEEPT (E1/2^+/0=0.29 V vs. Cp2Fe^+/0) oxidize at 0.03 and 0.02 V higher, respectively, than EPT (Table 1). In contrast, though the oxidation potentials of the new compounds were still higher than that of EPT in LiPF6/EC/EMC, a larger difference was observed: MEPT (E1/2^+/0=3.56 V vs. Li^+/0) and MEEPT (E1/2^+/0=3.60 V vs. Li^+/0) oxidized at […] higher, respectively, than EPT (Table 1). The increase in oxidation potential in the lithium-based electrolytes can be attributed to the coordination, through the oligoether side chain, of MEPT to Li^+, a characteristic that is even more pronounced in the case of MEEPT.
as §1

Radical cation stability, change of absorption spectra [1]	Diffusion Coefficient, neutral, TBA-PF6 in DCM [2]	Diffusion Coefficient, neutral, LiBF4 in PC [2]	Diffusion Coefficient, neutral, LiPF6 in EC/EMC [2]	Diffusion Coefficient, oxidized, TBA-PF6 in DCM [2]	Diffusion Coefficient, oxidized, LiBF4 in PC [2]	Diffusion Coefficient, oxidized, LiPF6 in EC/EMC [2]	Solubility 0.5M LiBF4 in PC ([5]; 0.5 M LiBF4 in PC) [M]	E1/2^+/0 vs. Cp2Fe^+/0 in TBA-PF6 in DCM [6] [V]	E1/2^+/0 vs. Li^+/0, LiPF6 in EC/EMC [6] [V]	E1/2^+/0 vs. Li^+/0, LiBF4 in PC [7] [V]	Concentration corresponding to 50 wt. % miscibility [5]	Oxidation potential higher than EPT, LiPF6/EC/EMC [7] [V]	Oxidation potential higher than EPT, TBA-PF6/DCM [7] [V]	Compound	Oxidation potential vs. Li^+/0 [3]	Solubility in organic solvents ([4]; organic solvents)	Solubility in organic solvents and electrolytes ([4]; organic solvents and electrolytes) [mM]
remain almost unchanged	3.9 ×10^−6 cm^2s^−1	1.5 ×10^−6 cm^2s^−1	1.0 ×10^−6 cm^2s^−1	2.4 ×10^−6 cm^2s^−1	1.4 ×10^−6 cm^2s^−1	0.7 ×10^−6 cm^2s^−1	≤ 0.1	0.27	3.51	3.60				CCN1c2ccccc2Sc2ccccc21 [EPT, N-ethylphenothiazine, reference compound]	ca. 3.5 V	ca. 0.1 M	
remain almost unchanged	3.7 ×10^−6 cm^2s^−1	1.1 ×10^−6 cm^2s^−1	0.4 ×10^−6 cm^2s^−1	2.6 ×10^−6 cm^2s^−1	1.0 ×10^−6 cm^2s^−1	0.2 ×10^−6 cm^2s^−1		0.30	3.56	3.64	ca. 2 M	0.06	0.03	COCCN1c2ccccc2Sc2ccccc21 [MEPT, N-(2-methoxyethyl)phenothiazine]			
remain almost unchanged	2.5 ×10^−6 cm^2s^−1	0.7, 0.7 ×10^−6 cm^2s^−1	0.2 ×10^−6 cm^2s^−1	1.6 ×10^−6 cm^2s^−1	0.7, 0.7 ×10^−6 cm^2s^−1	0.1 ×10^−6 cm^2s^−1		0.29	3.60	3.64	ca. 2 M	0.09	0.02	COCCOCCN1c2ccccc2Sc2ccccc21 [MEEPT, N-[2-(2-methoxyethoxy)ethyl]phenothiazine]			
														CCN1c2ccc(C(F)(F)F)cc2Sc2cc(C(F)(F)F)ccc21 [BCF3EPT, 3,7-bis(trifluoromethyl)-N-ethylphenothiazine]			1500 to 2000
